# Laboratory results as given in patent US10851082B2, “Substituted aromatic n-heterocyclic compounds as inhibitors of mitogen-activated protein kinase interacting kinase 1 (MNK1) and 2 (MNK2)” (Northwestern University, priority 2015, dated 2020).
# Where two headings read alike, the source gives them in different places.
# Tests used:
# Mnk1 = Mnk1 (Homo sapiens (Human), UniProt Q9BUB5); test: Mnk1 kinase inhibition, ADP-Glo ADP monitoring assay; assay type: biochemical
# Mnk2 = Mnk2 (Homo sapiens (Human), UniProt Q9HBH9); test: Mnk2 kinase inhibition, ADP-Glo ADP monitoring assay; assay type: biochemical
# [1] = unit inferred, read-out: Mnk1 IC50
# [2] = ADP-Glo kinase assay, unit inferred, read-out: Mnk2 IC50
# [3] = read-out: Mnk1 inhibition IC50 (+,++,+++)
# [4] = ADP-Glo kinase assay, read-out: Mnk2 inhibition IC50 (+,++,+++)
# Sequence of Mnk1 (Q9BUB5 whole entry): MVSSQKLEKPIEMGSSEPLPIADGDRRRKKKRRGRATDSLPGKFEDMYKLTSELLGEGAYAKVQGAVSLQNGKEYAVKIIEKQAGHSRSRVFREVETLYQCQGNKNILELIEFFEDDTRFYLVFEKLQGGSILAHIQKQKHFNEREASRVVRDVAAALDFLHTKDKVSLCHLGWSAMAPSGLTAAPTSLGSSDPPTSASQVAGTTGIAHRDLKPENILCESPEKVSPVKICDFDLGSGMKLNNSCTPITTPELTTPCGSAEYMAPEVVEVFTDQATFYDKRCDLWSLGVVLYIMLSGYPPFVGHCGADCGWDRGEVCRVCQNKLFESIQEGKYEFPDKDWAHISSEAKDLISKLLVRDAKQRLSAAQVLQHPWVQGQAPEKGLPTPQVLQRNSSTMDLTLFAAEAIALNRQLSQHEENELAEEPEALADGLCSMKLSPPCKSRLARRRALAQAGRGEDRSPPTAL
# Sequence of Mnk2 (Q9HBH9 whole entry): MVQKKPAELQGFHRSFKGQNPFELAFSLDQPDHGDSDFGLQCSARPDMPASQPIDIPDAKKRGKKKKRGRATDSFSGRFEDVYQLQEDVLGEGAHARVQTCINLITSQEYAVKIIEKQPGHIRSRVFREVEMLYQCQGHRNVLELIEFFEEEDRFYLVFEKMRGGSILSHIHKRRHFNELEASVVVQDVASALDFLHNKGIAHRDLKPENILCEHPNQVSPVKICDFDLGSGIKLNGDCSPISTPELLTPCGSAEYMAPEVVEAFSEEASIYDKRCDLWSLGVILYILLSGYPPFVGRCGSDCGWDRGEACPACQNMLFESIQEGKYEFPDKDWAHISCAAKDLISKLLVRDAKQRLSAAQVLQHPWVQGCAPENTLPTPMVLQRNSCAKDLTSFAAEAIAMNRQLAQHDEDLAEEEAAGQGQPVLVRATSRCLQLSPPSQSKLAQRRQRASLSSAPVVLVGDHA
smiles,measurement,setting,value
NC(=O)c1cc(-n2cnc3ccccc32)nc(NCCc2ccncc2)n1 [NUCC-0196265],IC50,Mnk1; [1],1600 nM
same,IC50,Mnk2; [2],890 nM
Nc1cc(-n2cnc3ccccc32)nc(NCCc2ccncc2)n1 [NUCC-0196307],IC50,Mnk1; [1],870 nM
same,IC50,Mnk2; [2],170 nM
N#Cc1cnc(NCCc2ccncc2)nc1-n1ccnc1 [NUCC-0196308],IC50,Mnk1; [1],2100 nM
same,IC50,Mnk2; [2],6900 nM
COC(=O)c1cnc(NCCc2ccncc2)nc1-n1cnc2ccccc21 [NUCC-0196309],IC50,Mnk1; [1],> 10000 nM
same,IC50,Mnk2; [2],> 10000 nM
CCOC(=O)c1cnc(NCCc2ccncc2)nc1-n1cnc2ccccc21 [NUCC-0196310],IC50,Mnk1; [1],2100 nM
same,IC50,Mnk2; [2],5400 nM
Fc1ccc(CCNc2ncc(Cl)c(-n3cnc4ccccc43)n2)cc1 [NUCC-0200783],IC50,Mnk1; [3],> 10000 nM
same,IC50,Mnk2; [4],< 1000 nM
FC(F)(F)c1ccc(CCNc2ncc(Cl)c(-n3cnc4ccccc43)n2)cc1 [NUCC-0200784],IC50,Mnk1; [3],> 10000 nM
same,IC50,Mnk2,1000 to 10000 nM
N#Cc1ccc(CCNc2ncc(Cl)c(-n3cnc4ccccc43)n2)cc1 [NUCC-0200785],IC50,Mnk1; [3],> 10000 nM
same,IC50,Mnk2; [4],< 1000 nM
N#Cc1cnc(Oc2ccc(Cl)cc2)nc1-n1cnc2ccccc21 [NUCC-0200787],IC50,Mnk1; [3],< 1000 nM
same,IC50,Mnk2; [4],< 1000 nM
Brc1cnc(OCCc2ccncc2)nc1-n1cnc2ccccc21 [NUCC-0200789],IC50,Mnk1; [3],< 1000 nM
same,IC50,Mnk2; [4],< 1000 nM
N#Cc1cnc(OCCN2CCOCC2)nc1-n1cnc2ccccc21 [NUCC-0200791],IC50,Mnk1; [3],1000 to 10000 nM
same,IC50,Mnk2; [4],< 1000 nM
N#Cc1cnc(Oc2cccnc2)nc1-n1cnc2ccccc21 [NUCC-0200794],IC50,Mnk1; [3],1000 to 10000 nM
same,IC50,Mnk2; [4],< 1000 nM
N#Cc1cnc(OC2CCCOC2)nc1-n1cnc2ccccc21 (centres unmarked) [NUCC-0200795],IC50,Mnk1; [3],> 10000 nM
same,IC50,Mnk2,1000 to 10000 nM
Cc1cc2ncn(-c3nc(NCCc4ccncc4)ncc3Cl)c2cc1C [NUCC-0200797],IC50,Mnk1; [3],> 10000 nM
same,IC50,Mnk2; [4],< 1000 nM
O=[N+](O)c1ccc2c(c1)ncn2-c1nc(NCCc2ccncc2)ncc1Cl [NUCC-0200798],IC50,Mnk1; [3],> 10000 nM
same,IC50,Mnk2,1000 to 10000 nM
COC(=O)c1ccc2c(c1)ncn2-c1nc(NCCc2ccncc2)ncc1Cl [NUCC-0200799],IC50,Mnk1; [3],1000 to 10000 nM
same,IC50,Mnk2; [4],< 1000 nM
Fc1ccc2c(ncn2-c2nc(NCCc3ccncc3)ncc2Cl)c1F [NUCC-0200800],"Mnk1 inhibition IC50 (+,++,+++)",Mnk1,no activity
same,"Mnk2 inhibition IC50 (+,++,+++)",Mnk2; ADP-Glo kinase assay,no activity
Clc1cnc(NCCc2ccncc2)nc1-n1nnc2ccccc21 [NUCC-0200801],IC50,Mnk1; [3],> 10000 nM
same,IC50,Mnk2,1000 to 10000 nM
N#Cc1cnc(NCCc2ccncc2)nc1-n1nnc2ccccc21 [NUCC-0200802],IC50,Mnk1; [3],> 10000 nM
same,IC50,Mnk2; [4],> 10000 nM
Clc1cnc(OC2CCOCC2)nc1-n1cnc2ccccc21 [NUCC-0200804],IC50,Mnk1; [3],< 1000 nM
same,IC50,Mnk2; [4],< 1000 nM
Clc1cnc(OC2CCOC2)nc1-n1cnc2ccccc21 (centres unmarked) [NUCC-0200805],IC50,Mnk1; [3],< 1000 nM
same,IC50,Mnk2; [4],< 1000 nM
Clc1cnc(OCCN2CCOCC2)nc1-n1cnc2ccccc21 [NUCC-0200806],IC50,Mnk1; [3],1000 to 10000 nM
same,IC50,Mnk2; [4],< 1000 nM
COc1ccc(Oc2ncc(Cl)c(-n3cnc4ccccc43)n2)cc1 [NUCC-0200809],"Mnk1 inhibition IC50 (+,++,+++)",Mnk1,no activity
same,"Mnk2 inhibition IC50 (+,++,+++)",Mnk2; ADP-Glo kinase assay,no activity
"Clc1cnc(Oc2cccnc2)nc1-n1cnc2ccccc21 [NUCC-0200810, 1-(5-chloro-2-(pyridin-3-yloxy)pyrimidin-4-yl)-1H-benzo[d]imidazole]","Mnk1 inhibition IC50 (+,++,+++)",Mnk1,no activity
same,"Mnk2 inhibition IC50 (+,++,+++)",Mnk2; ADP-Glo kinase assay,no activity
N#Cc1cnc(OCc2ccccn2)nc1-n1cnc2ccccc21 [NUCC-0200902],IC50,Mnk1; [3],< 1000 nM
same,IC50,Mnk2; [4],< 1000 nM
N#Cc1cnc(OCc2cccnc2)nc1-n1cnc2ccccc21 [NUCC-0200903],IC50,Mnk1; [3],< 1000 nM
same,IC50,Mnk2; [4],< 1000 nM
N#Cc1cnc(OCc2ccncc2)nc1-n1cnc2ccccc21 [NUCC-0200904],IC50,Mnk1; [3],1000 to 10000 nM
same,IC50,Mnk2,1000 to 10000 nM
N#Cc1cnc(OC2CCc3cccnc32)nc1-n1cnc2ccccc21 (centres unmarked) [NUCC-0200905],IC50,Mnk1; [3],> 10000 nM
same,IC50,Mnk2,1000 to 10000 nM
N#Cc1cnc(-n2cnc3ccccc32)nc1OC1CCc2cccnc21 (centres unmarked) [NUCC-0200906],IC50,Mnk1; [3],1000 to 10000 nM
same,IC50,Mnk2; [4],< 1000 nM
Cc1ccc2c(c1)ncn2-c1nc(NCCc2ccncc2)ncc1Cl [NUCC-0200908],IC50,Mnk1; [3],> 10000 nM
same,IC50,Mnk2,1000 to 10000 nM
Cc1ccc2c(c1)ncn2-c1ncc(Cl)c(NCCc2ccncc2)n1 [NUCC-0200909],IC50,Mnk1; [3],< 1000 nM
same,IC50,Mnk2; [4],< 1000 nM
COc1ccc2c(c1)ncn2-c1nc(NCCc2ccncc2)ncc1Cl [NUCC-0200910],IC50,Mnk1; [3],> 10000 nM
same,IC50,Mnk2; [4],< 1000 nM
Clc1cnc(NCCc2ccncc2)nc1-n1ccc2c(Cl)ncnc21 [NUCC-0200911],IC50,Mnk1; [3],> 10000 nM
same,IC50,Mnk2; [4],> 10000 nM
Clc1cnc(NCCCc2ccncc2)nc1-n1cnc2ccccc21 [NUCC-0200912],IC50,Mnk1; [3],> 10000 nM
same,IC50,Mnk2,1000 to 10000 nM
N#Cc1cnc(NCCCc2ccncc2)nc1-n1cnc2ccccc21 [NUCC-0200913],IC50,Mnk1; [3],> 10000 nM
same,IC50,Mnk2; [4],> 10000 nM
Clc1cnc(OCCC2CCNCC2)nc1-n1cnc2ccccc21 [NUCC-0201002],IC50,Mnk1; [3],< 1000 nM
same,IC50,Mnk2; [4],< 1000 nM
OC1CC(Nc2ncc(Cl)c(-n3cnc4ccccc43)n2)C1 (centres unmarked) [NUCC-0201003],IC50,Mnk1; [3],1000 to 10000 nM
same,IC50,Mnk2,1000 to 10000 nM
NC1CC(Oc2ncc(Cl)c(-n3cnc4ccccc43)n2)C1 (centres unmarked) [NUCC-0201004],IC50,Mnk1; [3],< 1000 nM
same,IC50,Mnk2; [4],< 1000 nM
N#Cc1cnc(OCCc2cccnc2)nc1-n1cnc2ccccc21 [NUCC-0201005],IC50,Mnk1; [3],1000 to 10000 nM
same,IC50,Mnk2,1000 to 10000 nM
NC1CCN(c2ncc(Cl)c(-n3cnc4ccccc43)n2)C1 (centres unmarked) [NUCC-0201006],IC50,Mnk1; [3],1000 to 10000 nM
same,IC50,Mnk2,1000 to 10000 nM
Clc1cnc(NC2CCNC2)nc1-n1cnc2ccccc21 (centres unmarked) [NUCC-0201007],IC50,Mnk1; [3],< 1000 nM
same,IC50,Mnk2; [4],< 1000 nM
Clc1cnc(NC2CCN(c3nccn4ccnc34)C2)nc1-n1cnc2ccccc21 (centres unmarked) [NUCC-0201015],IC50,Mnk1; [3],1000 to 10000 nM
same,IC50,Mnk2,1000 to 10000 nM
"Cc1nc2ccccc2n1-c1nc(OC2CC(N(C)C)C2)ncc1Cl (centres unmarked) [NUCC-0201016, 3-((5-chloro-4-(2-methyl-1H-benzo[d]imidazol-1-yl)pyrimidin-2-yl)oxy)-N,N-dimethylcyclobutanamine]",IC50,Mnk1; [3],1000 to 10000 nM
same,IC50,Mnk2,1000 to 10000 nM
CC1(C)COC(=O)C1Oc1ncc(Cl)c(-n2cnc3ccccc32)n1 (centres unmarked) [NUCC-0201017],IC50,Mnk1; [3],< 1000 nM
same,IC50,Mnk2; [4],< 1000 nM
CC1=C(Oc2ncc(Cl)c(-n3cnc4ccccc43)n2)C(=O)C(C)O1 (centres unmarked) [NUCC-0201018],IC50,Mnk1; [3],1000 to 10000 nM
same,IC50,Mnk2,1000 to 10000 nM
CC1=C(Oc2ncc(Cl)c(-n3cnc4ccccc43)n2)C(=O)CO1 [NUCC-0201019],IC50,Mnk1; [3],1000 to 10000 nM
same,IC50,Mnk2,1000 to 10000 nM
FC(F)(F)c1cc(Cl)c2ncn(-c3nc(OCCc4ccccn4)ncc3Cl)c2c1 [NUCC-0201020],IC50,Mnk1; [3],1000 to 10000 nM
same,IC50,Mnk2,1000 to 10000 nM
Clc1cccc(CCOc2ncc(Cl)c(-n3cnc4ccccc43)n2)n1 [NUCC-0201021],IC50,Mnk1; [3],< 1000 nM
same,IC50,Mnk2; [4],< 1000 nM
Clc1cc(Cl)nc(CCOc2ncc(Cl)c(-n3cnc4ccccc43)n2)c1 [NUCC-0201022],IC50,Mnk1; [3],1000 to 10000 nM
same,IC50,Mnk2,1000 to 10000 nM
"Fc1cc(CCOc2ncc(Cl)c(-n3cnc4ccccc43)n2)ccn1 [NUCC-0201046, 1-(5-chloro-2-(2-(2-fluoropyridin-4-yl)ethoxy)pyrimidin-4-yl)-1H-benzo[d]imidazole]",IC50,Mnk1; [3],< 1000 nM
same,IC50,Mnk2; [4],< 1000 nM
N[C@H]1C[C@@H](Oc2ncc(Cl)c(-n3cnc4ccccc43)n2)C1 [NUCC-0201047],IC50,Mnk1; [3],< 1000 nM
same,IC50,Mnk2; [4],< 1000 nM
Clc1cnc(OC2CCC2)nc1-n1cnc2ccccc21 [NUCC-0201048],IC50,Mnk1; [3],< 1000 nM
same,IC50,Mnk2; [4],< 1000 nM
Clc1cnc(NC2CCC2)nc1-n1cnc2ccccc21 [NUCC-0201050],IC50,Mnk1; [3],1000 to 10000 nM
same,IC50,Mnk2,1000 to 10000 nM
O=C1CCN(c2ncc(Cl)c(-n3cnc4ccccc43)n2)C1 [NUCC-0201051],IC50,Mnk1; [3],1000 to 10000 nM
same,IC50,Mnk2,1000 to 10000 nM
N[C@H]1C[C@H](Oc2ncc(Cl)c(-n3cnc4ccccc43)n2)C1 [NUCC-0201052],IC50,Mnk1; [3],< 1000 nM
same,IC50,Mnk2; [4],< 1000 nM
Clc1cnc(NC2C3CC2C3)nc1-n1cnc2ccccc21 (centres unmarked) [NUCC-0201136],IC50,Mnk1; [3],1000 to 10000 nM
same,IC50,Mnk2,1000 to 10000 nM
"N#Cc1cnc(NC2C3CC2C3)nc1-n1cnc2ccccc21 (centres unmarked) [NUCC-0201137, 4-(1H-benzo[d]imidazol-1-yl)-2-(bicyclo[1.1.1]pentan-2-ylamino)pyrimidine-5-carbonitrile]",IC50,Mnk1; [3],< 1000 nM
same,IC50,Mnk2; [4],< 1000 nM
N#Cc1cn(-c2nc(OC3CC(N)C3)ncc2Cl)cn1 (centres unmarked) [NUCC-0201246],IC50,Mnk1; [3],1000 to 10000 nM
same,IC50,Mnk2,1000 to 10000 nM
